Data on 1 compound can be found in patent US9689040B2, “Selective inhibitors of tumor-initiating cells” (Children's Medical Center Corporation, priority 2011, dated 2017).

“Also recorded” adds a separate entry of the source.

The subject of test [1] is BPLER cells. Kind of test: Cell viability after drug treatment (CellTiterGlo / Trypan-Blue). The class given is cell-based, human.
Test [2] deals with unselected breast cancer patients. Particulars: eight phase I/II studies, chemotherapy combination regimens with bortezomib; cited from earlier work.
The subject of test [3] is BPLER cells. Kind of test: Apoptosis (Annexin V/PI flow cytometry, caspase 3 and PARP cleavage immunoblot). Particulars: clinically relevant / low dose, 24 hours. The class given is cell-based, human. Here is the method: (§1) BPLER were used as control. […] The percentage of double-positive cells is indicated.
(§2) To further define factors underlying such properties of BPLER cells, we first determined the molecular mechanism by which proteasome inhibition affects the growth of these cells.
(§3) Immunoblot was performed as described^41. Primary antibodies were as follows: cleaved Caspase 3 (Cell Signaling, rabbit polyclonal, 1:1000), PARP1 (Santa Cruz, rabbit polyclonal, 1:500), MCL1 (Cell Signaling, Rabbit polyclonal, 1:1000), Bim (Santa Cruz, rabbit polyclonal, 1:500), Bik (Cell Signaling, rabbit polyclonal, 1:1000), Puma (Cell Signaling, rabbit polyclonal, 1:1000), Noxa (Calbiochem, mouse monoclonal, 1:500), Bid (Santa Cruz, rabbit polyclonal, 1:500), Bad (Santa Cruz, rabbit polyclonal, 1:500). Antibodies were diluted in 5% milk in TBS-T and incubated O.N. at 4° C. Secondary mouse and rabbit HRP-conjugated antibodies were from Amersham. Protein signal was detected using the ECL Plus kit (Amersham). For flow cytometry, cells were stained as previously described^33, using the following fluorescent-conjugated antibodies: CD44 (BD Biosciences), CD24 (BD Biosciences), CD326 (ESA, Biolegend), Annexin V (Invitrogen). For immunofluorescence microscopy, cells were fixed in 2% PFA for 10 min, permeabilized with 1% Triton X in PBS for 5 min, and incubated with primary antibodies in 0.5% Triton X, 1% FBS in PBS for 30 min at RT. Antibodies were: CK18 (Santa Cruz, mouse monoclonal, 1:100) and CK14 (Millipore, mouse monoclonal, 1:100). After washing the cells were stained sequentially with AlexaFluor647-conjugated secondary antibody (Invitrogen, 1:200) and DAPI (Sigma, 1:5000). For immunohistochemistry, BPLER tumor sections were prepared from paraffin-embedded tissues, deparaffinized and treated with 10% citrate buffer for 15 min. Staining was performed using a BIOGENEX IHC DAB kit (Biogenex) following the manufacturer's protocol. Primary antibodies were: CK14 (Millipore, mouse monoclonal, 1:100), CK5 (Millipore, mouse monoclonal, 1:100), HH3 (Cell Signaling, rabbit polyclonal, 1:100), ER (Abcam, mouse monoclonal, 1:100), Vimentin (Invitrogen, mouse monoclonal 1:100), Ki67 (Millipore, mouse monoclonal, 1:100).
A general note: A flow cytometer gives signals particle by particle.

Test [4] has as its system BPE cells. Described as above. The class given is cell-based, human. Particulars: clinically relevant / low dose, 24 hours. Here is the method:
as §1, §2, §3

The subject of test [5] is HMLER cells. The test is described as above. The settings on record: clinically relevant / low dose, 24 hours. The class given is cell-based, human. As to the method: as §1, §2, §3
In test [6] the target is proteasome (Homo sapiens, UniProt P28074). Kind of test: Proteasome activity in BPLER tumors after treatment (ProteasomeGlo assay). It is filed as in vivo, mouse. The settings on record: after 18 hours. Here is the method:
(§4) (6A) Proteasome activity in protein lysates from BPLER tumors 18 hours after intratumoral (i.t.), intraperithoneal (i.p) or intravenous (i.v.) treatment with bortezomib at the indicated dose, as determined by ProteasomeGlo assay. Proteasome activity in BPLER treated with bortezomib in vitro is shown as control. (6B-6E) Mean tumor volume (6B, 6D) in BPLER tumor-bearing mice after treatment with bortezomib or DMSO at the indicated dose, schedule and route of administration. Median tumor weight was measured at time of sacrifice (6C, 6E). […] (6F) Immunoblot analysis of protein lysates from BPLER tumors 18 hours after 1 intravenous dose of bortezomib at 1.6 mg/kg bortezomib or DMSO, showing efficient Noxa induction and caspase-3 and PARP1 cleavage after bortezomib treatment. (6G) Mean tumor volume in MB-468 tumor-bearing mice after intravenous treatment with 1.6 mg/kg bortezomib weekly. (6H) Schematic diagram illustrating generation of mouse TNBC primary tumor fragments for bortezomib-based therapy studies. […] 4T1-E tumors are shown as control. (6I, 6J) Mean V22 tumor volume (6I) after weekly intravenous infusion of bortezomib (1.6 mg/kg) or DMSO. Treatment was started 2 days after implantation of primary tumor fragments. […] The top and the bottom of each box represent the 75th and 25th percentile of tumor weight, respectively. Upper and lower whiskers represent maximum and minimum tumor weight, respectively. The black horizontal band in each box corresponds to median tumor weight.
Our data thus far indicate that highly malignant epithelial TNBC cells are selectively susceptible to proteasome inhibition. Bortezomib is already in the clinic for treatment of multiple myeloma and other lymphomas. […] To assess therapeutic efficacy, we administered bortezomib every 3 days (0.8 mg/kg i.t.) or weekly (1.6 mg/kg i.v.) after BPLER tumors, implanted in the flank of Nu/J mice, became palpable. BPLER tumor outgrowth was assessed by tumor volume during the treatment period and by tumor weight at the time of sacrifice. […]

The subject of test [7] is mesenchymal MDA-MB-231 and MDA-MB-436 cells. The settings on record: MB-231, MB-436.
Test [8] relates to mouse TNBC primary tumor fragments. Kind of test: Primary TNBC tumor fragments from TP53 heterozygous Balb/c mice implanted in mammary fat-pad (V22 tumors). It is filed as in vivo. The settings on record: 1.6 mg/kg weekly i.v. infusion. As to the method: as §4, with “Upper and lower whiskers represent maximum and minimum tumor weight, respectively. The black horizontal band in each box corresponds to median tumor weight.” left out

Test [9] relates to mesenchymal MDA-MB-231 and MDA-MB-436 cells. The experiment in a line: cells. Particulars: Homo sapiens, 24 h, read-out: decrease of cell viability.
For test [10], the system named is luminal MCF7 and BT-474 cells. The experiment in a line: Viability of breast cancer cell lines treated with bortezomib (CellTiterGlo). The class given is cell-based, human. (In general: Cellular ATP, detected with luciferase, serves as a proxy for viable cell number.)

Sequence of proteasome (P28074 60-263): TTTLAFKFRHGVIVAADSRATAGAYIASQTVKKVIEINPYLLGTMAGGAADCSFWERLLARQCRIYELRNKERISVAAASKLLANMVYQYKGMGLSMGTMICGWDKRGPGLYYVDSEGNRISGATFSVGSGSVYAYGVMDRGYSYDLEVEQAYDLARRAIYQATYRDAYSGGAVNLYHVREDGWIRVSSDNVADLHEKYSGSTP

As for `CC(C)C[C@H](NC(=O)[C@H](Cc1ccccc1)NC(=O)c1cnccn1)B(O)O` [bortezomib], in [1] (increasing doses, 24 hr), the “sensitivity of BPLER relative to HMLER cells (viability)” value was “more sensitive”. The “response of BPLER cells at confluence” value in test [1] (non-dividing (confluent) cells) is “became resistant”. In addition, the partial response rates in [2] is given as 10-20%. The results for the “apoptosis (cleavage of caspase 3 and PARP)” value in [3], in test [4] and in test [5] were “marked cleavage; also recorded: died of apoptosis”, “resistant to bortezomib-induced apoptosis” and “only partially; also recorded: minimal signs of apoptosis”, respectively. For the same compound, the “proteasome inhibition in the tumor” value in test [6] (1.6 mg/kg i.v.) is on record as “efficient proteasome activity inhibition”; in test [6] (1 dose 0.8 mg/kg i.p. or i.v.), “less effective”; in test [6] (1 dose 0.8 mg/kg i.t.) it was “Nearly complete proteasome inhibition”. The “sensitivity of mesenchymal breast cancer cell lines” value in [7] is given as “resistant”. The “secondary tumors smaller compared to control mice” value in test [8] is reported as ~90%. Besides, the “secondary tumors weighed less compared to control mice” value in [8] is ~80%. The cytotoxicity at 0.0125 µM in test [9] is 20 to 25%; in test [10] (Homo sapiens, luminal cells, 12.5 nM, 24 hr, read-out: decrease of cell viability), 5%. Besides, in [10] (MCF7, BT-474), the “sensitivity of ER+ and HER2+ breast cancer cell lines” value is given as “resistant”.
